Laboratory results from patent US11858913B2, “Bicyclic pyridazinones and methods of use thereof” (ALIGOS THERAPEUTICS, INC., priority 2020, dated 2024).

Target: T1, human thyroid receptor beta ligand-binding domain (LBD) (Homo sapiens, UniProt P10828)
T1 construct: purchased Invitrogen
T1 sequence (P10828 217-461 limits assumed): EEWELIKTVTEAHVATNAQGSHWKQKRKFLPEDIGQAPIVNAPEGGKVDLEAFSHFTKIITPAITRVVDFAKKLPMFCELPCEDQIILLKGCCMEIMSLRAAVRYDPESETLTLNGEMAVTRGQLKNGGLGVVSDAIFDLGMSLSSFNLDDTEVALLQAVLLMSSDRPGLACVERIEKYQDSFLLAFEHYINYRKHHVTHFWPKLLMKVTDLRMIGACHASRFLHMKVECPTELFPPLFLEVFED
Assay: THR Biochemical Assay (Assay 1): TR-FRET thyroid receptor beta coactivator assay
Conditions: GST-tagged THR-beta LBD 1 nM, fluorescein SRC2-2 coactivator peptide 200 nM, 1 hr at rt, TR-FRET ratio 520:495; read-out: Assay 1 (EC50, THR-beta agonist activity)
Text: The TR-FRET thyroid receptor beta coactivator assay was used with slight, optimized modifications of the manufacturer's protocol (Invitrogen). The assay uses a terbium-labeled anti-GST antibody, a glutathione-S-transferase (GST) tagged human thyroid receptor, beta or alpha, ligand-binding domain (LBD), and a fluorescein labeled SRC2-2 coactivator peptide. The antibody interacts with the LBD, where the agonist also binds, resulting in increased affinity for the SRC2-2 coactivator peptide causing energy transfer […] the acceptor fluorophore and a FRET emission shift from 495 to 520 nm. The energy transfer was detected as an increase in the fluorescence emission of the fluorescein acceptor, and a decrease in the fluorescence emission of the terbium donor. The assay was performed in a 384-well black plate in a final volume of 20 μL. Serial dilution of various test agonists was performed in DMSO (1% final DMSO concentration) and added to the test plate. […] The TR-FRET was then measured on a Victor multilabel reader (Perkin Elmer) using an excitation wavelength of 340 nm with emission filters of 495 nm and 520 nm. The assay was quantified by expressing a ratio (520:495) of the intensities, and the resulting activation curves; EC50 values were generated using a sigmoidal dose response (variable slope) equation in GraphPad™ Prism 8.0.

Compound | EC50
CC1CCc2c(Oc3c(Cl)cc(-n4nc(N)c(=O)[nH]c4=O)cc3Cl)n[nH]c(=O)c21 (single isomer, unassigned) [Compound 1a, 6-amino-2-(3,5-dichloro-4-((7-methyl-1-oxo-2,5,6,7-tetrahydro-1H-cyclopenta[d]pyridazin-4-yl)oxy)phenyl)-1,2,4-triazine-3,5(2H,4H)-dione] | < 50 nM
CC1CCc2c(Oc3c(Cl)cc(-n4nc(N)c(=O)[nH]c4=O)cc3Cl)n[nH]c(=O)c21 (single isomer, unassigned) [Compound 1b, 6-amino-2-(3,5-dichloro-4-((7-methyl-1-oxo-2,5,6,7-tetrahydro-1H-cyclopenta[d]pyridazin-4-yl)oxy)phenyl)-1,2,4-triazine-3,5(2H,4H)-dione] | 50 to 250 nM
